Assay results published in the METLIN SMRT retention time set (Domingo-Almenara et al. 2019).

Experiment: gradient 5% acetonitrile 3 min, to 50% in 2 min, to 85% in 15 min, held 3 min, 100 µL/min
Details: column: Zorbax Extend-C18 2.1 x 50 mm; eluents: water / acetonitrile, 0.1% formic acid
In short: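 Pure standards were run in mixtures of ~100 molecules by HPLC coupled to a quadrupole time-of-flight mass spectrometer. The column was a Zorbax Extend-C18 (2.1 × 50 mm, 1.8 μm) at 100 μL/min, with water and acetonitrile each containing 0.1% formic acid, in positive and negative ionization mode. Dead and dwell volumes were 40 μL and 900 μL. Retention time was taken from computationally picked adduct peaks, each manually inspected, with data collected over 3 months.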

| SMILES | RP-LC retention time |
| --- | --- |
| COCCn1cc2c3c(cccc31)CN(C(=O)Nc1cc(OC)cc(OC)c1)CC2 | 926 s |
| O=S(=O)(c1ccc(Cl)s1)N1CCN(c2ccc(-n3ccnc3)nn2)CC1 | 593 s |
| Cc1ccc(NC(=O)c2cn3c(n2)CCCC3)c(C)c1 | 644 s |
| CC(Oc1ccccc1)C(=O)N1CC(c2nc(-c3ccsc3)nn2C)C1 (stereo unspecified) | 766 s |
| Cc1ccc(S(=O)(=O)N2CCC(C)CC2)cc1-c1nnc(-c2ccc(F)cc2)o1 | 1220 s |
| Cc1ccc(NS(=O)(=O)c2cn(C)c3ncccc23)cc1 | 774 s |
| Cc1ccc(NC(=O)N2CC(c3nc(C)no3)C3(CCOCC3)C2)cc1 (stereo unspecified) | 716 s |
| CCCCc1ccc(NC(=O)N2CCC(c3cc(N)on3)CC2)cc1 | 876 s |
| O=C1NC2(CCN(C(=O)Nc3ccccc3Cl)CC2)N=C1c1ccccc1 | 800 s |
| COc1cccc(CNC(=O)C2(C)CCCN(S(=O)(=O)c3ccc(F)cc3F)C2)c1 (stereo unspecified) | 922 s |
| CCOC(=O)C(=O)NCC1CCCN1S(=O)(=O)c1ccc(OC)cc1 (stereo unspecified) | 700 s |
| O=C(NCCN1CCCCC1)c1csc(-c2ccnc(N3CCOCC3)c2)n1 | 566 s |
| COc1cc(NC(=O)NCCc2nc3cccnc3n2C2CCCC2)cc(OC)c1 | 704 s |
| NC(=O)c1cccc2ncc(-c3ccc(Cl)cc3)nc12 | 831 s |
| NC(=O)C1CCN([C@H]2CS(=O)(=O)C[C@@H]2S(=O)(=O)c2ccc(F)cc2)CC1 | 629 s |
| O=C(CCc1nc2sc3c(c2c(=O)[nH]1)CCCCC3)N1CCN(C2CCCCC2)CC1 | 610 s |
| CCn1cc(C(=O)Nc2cc(C)ccc2C)c2cccnc21 | 854 s |
| CC(=O)Nc1ccc(OCC(=O)NCc2cc(F)ccc2F)nc1 | 681 s |
| Cc1ccc(CNC(=O)C2Cn3cccc3C(=O)N2C)o1 (stereo unspecified) | 663 s |
| CC(=O)c1cccc(Nc2c(C(=O)N3CCOCC3)cnc3nc(C)ccc23)c1 | 584 s |
| CCOC(=O)c1cccc(NC(=O)C2CCCN(c3ncnc4c3nc3n4CCCCC3)C2)c1 (stereo unspecified) | 876 s |
| COC(=O)c1sccc1NC(=O)Nc1cccn2c(C3CCC3)nnc12 | 884 s |
| CC(=O)c1cccc(NC(=O)Cn2cccc2-c2nc(-c3ccccc3)cs2)c1 | 1030 s |

| SMILES | RP-LC retention time |
| --- | --- |
| O=S(=O)(NCc1nnnn1-c1ccc(Cl)cc1)c1ccc2c(c1)OCCO2 | 773 s |
| O=C(Nc1ccc(Cl)cc1)C1CCN(C(=O)C2Sc3ccccc3NC2=O)CC1 (stereo unspecified) | 819 s |
| O=C(NCc1ccco1)C1CCN(c2cc(N3CCCCC3)ncn2)CC1 | 632 s |
| CCOc1ccc(NC(=O)Cn2c(N3CCOCC3)nc(COC)cc2=O)cc1 | 967 s |
| Cc1cccc(C)c1Nc1c(-c2ccccc2)nc2ncccn12 | 786 s |
| COc1cc(C(=O)N2CCN(c3cc(=O)n(C)c(=O)n3C)CC2)cc(OC)c1OC | 630 s |
| Cc1cc(C(=O)N(Cc2ccco2)c2nc3ccccc3s2)on1 | 1100 s |
| Cc1ccc(-c2coc(-c3ccc(NC(=O)Cc4cccs4)cc3)n2)c(C)c1 | 1330 s |
| Cc1ccc(NC(=O)Cn2c(=O)nc(N3CCCC(C)C3)c3ccccc32)cc1C (stereo unspecified) | 895 s |
| O=C(C1CCCN(c2nn3c(=O)c4c(nc3s2)CCCC4)C1)N1CCC2(CC1)OCCO2 (stereo unspecified) | 674 s |
| COc1ccc(NC(=O)Cn2c(N3CCCC3)nc(C)cc2=O)cc1 | 603 s |
| COc1ccc(-n2cc(C(=O)OCCc3ccccn3)c3ccccc3c2=O)cc1 | 714 s |
| Cc1ccn2cc(-c3cccc(S(=O)(=O)N4CC(C)OC(C)C4)c3)nc2c1 (stereo unspecified) | 647 s |
| COc1cccc(-c2noc(CSc3nccn3-c3ccccc3)n2)c1OC | 857 s |
| COC(=O)c1cccc(NC(=O)c2c[nH]c3ncccc23)c1 | 708 s |
| Cc1cc2c(cc1S(=O)(=O)N1CCCC1C(=O)Nc1ccc(C(C)C)cc1)OC(C)C(=O)N2 (stereo unspecified) | 916 s |
| O=C(CN(C(=O)c1ccc(F)c(F)c1)C1CCCCC1)N1CCNCC1 | 635 s |
| O=C(Cc1csc(NC(=O)NC2CCCCC2)n1)NCc1c(F)cccc1F | 737 s |
| CCN1CCN(CCNC(=O)CCC(=O)N2CC3CCCN3c3ccccc32)CC1 (stereo unspecified) | 561 s |
| CCCn1nc(CNC(=O)c2ccc3c(c2)OCO3)c2ccccc21 | 843 s |
| CCc1ccccc1NC(=O)N1CCC(n2cnnc2C2CC2)C1 (stereo unspecified) | 628 s |
| COCCCNC(=O)N1CCCC(C)(C(=O)NCc2ccc(C)cc2)C1 (stereo unspecified) | 720 s |
| COC(=O)c1cc(S(=O)(=O)N2CCCC2C(=O)Nc2ccc(F)cc2F)cn1C (stereo unspecified) | 875 s |

| SMILES | RP-LC retention time |
| --- | --- |
| Cc1ccc(NC(=O)Nc2nccn(-c3cccc(F)c3)c2=O)cc1C | 1020 s |
| Cc1ccc(C2CCCN2C(=O)Cc2ccsc2)cc1 (stereo unspecified) | 632 s |
| Cc1ccc(CNC(=O)C(C)Oc2cc(C(F)(F)F)c3c(C)nn(C)c3n2)cc1 (stereo unspecified) | 1030 s |
| O=C(c1ccco1)N1CCCC(c2nn[nH]n2)C1 (stereo unspecified) | 596 s |
| Cc1sc(NC(=O)CCn2c(=O)sc3ccccc32)nc1-c1ccc(Cl)cc1 | 1110 s |
| Cc1oc(-c2ccc(NC(=O)c3ccc(Br)cc3)cc2)nc1Cn1cccn1 | 948 s |
| O=C(Nc1ccc(Cl)cc1)c1cccnc1-n1cc(-c2ccncc2)cn1 | 653 s |
| CCCNC(=O)c1cc(-c2ccccc2)cn1C | 910 s |
| COCCn1cc(CCNC(=O)Nc2ccc(C)cc2)c2cccnc21 | 718 s |
| Cc1ccc(N2C(=O)CN(S(=O)(=O)c3ccccc3)CC2(C)C(=O)NC2CCCCC2)cc1 (stereo unspecified) | 1000 s |
| Cc1ccc(CN2CCCN(c3ncccc3-c3nc(C(C)C)no3)CC2)cc1 | 746 s |
| O=c1n(CC2CC2)nc2n1CCC(NS(=O)(=O)c1cccnc1)CC2 (stereo unspecified) | 621 s |
| CCC(C)NC(=O)N1CCCN(C2=NS(=O)(=O)C(c3ccccc3)=C2C)CC1 (stereo unspecified) | 748 s |
| Cc1nc(-c2csc(S(=O)(=O)N3CCC(C(=O)Nc4ccc(F)c(Cl)c4)CC3)c2)no1 | 1010 s |
| CCS(=O)(=O)N1CCCC(Cn2cc(COc3ccc4c(c3)CCC4)nn2)C1 (stereo unspecified) | 963 s |
| Brc1ccc(OCc2nnc3sc(-c4cccnc4)nn23)cc1 | 831 s |
| O=C(Cc1ccc(Br)cc1)N1CCN(C(=O)c2cc(-c3cccnc3)n[nH]2)CC1 | 638 s |
| O=C(CN1CCN(C(=O)Cc2cccs2)CC1)c1ccco1 | 538 s |
| Cc1noc(C)c1CNC(=O)NCCc1ccccc1 | 689 s |
| Cc1ccc(-c2coc(-c3ccc(NC(=O)NCc4ccco4)cc3)n2)c(C)c1 | 1110 s |
| CC(NC(=O)c1ccc2ncnc(N3CCCCC3)c2c1)c1ccc(F)cc1 (stereo unspecified) | 687 s |
| O=C(c1ccc2ncnc(N3CCCC3)c2c1)N1CCCC1 | 580 s |
| Cc1ccc(NC(=O)CN2CCC(C(=O)N3CCN(C(=O)c4ccco4)CC3)CC2)cc1 | 569 s |

| SMILES | RP-LC retention time |
| --- | --- |
| O=C(NC1CC1)[C@@H]1C[C@H](Oc2ccccc2)CN1C(=O)CCC1CCCC1 | 886 s |
| O=C(NCc1ccc(F)cc1)N1CCC(Nc2cccnc2)C1 (stereo unspecified) | 591 s |
| O=C(Nc1nc2c(s1)CCc1ccccc1-2)c1cccc(F)c1 | 1120 s |
| CC(C)Cn1ccc2c(cc(C(=O)Nc3ccc(Br)cc3)n2C)c1=O | 979 s |
| CC(C)n1c(=O)sc2cc(S(=O)(=O)N3CCC(C(=O)N4CCc5ccccc5C4)CC3)ccc21 | 1000 s |
| O=C(CSc1nccn1Cc1ccco1)Nc1ccccc1F | 600 s |
| COc1ccc(Nc2c(-c3ccc(C)cc3)nc3cnccn23)cc1 | 855 s |
| COc1ccccc1NC(=O)c1cc2ccccc2cc1O | 1060 s |
| COc1ccc(OC)c(-c2csc(NC(=O)c3ccccc3)n2)c1 | 1040 s |
| CCOC(=O)c1c(S(=O)(=O)N2CCC(C(=O)Nc3cccc(Cl)c3)CC2)c(C)n(C)c1C | 932 s |
| O=C(Cn1ccc2c(SCc3ccc(F)cc3)nccc21)N1CCN(c2ccccn2)CC1 | 595 s |
| Cc1cccc(CC(=O)N2C[C@@H]3C[C@H]2C[C@@H]3NS(=O)(=O)c2cccs2)c1 | 815 s |
| C=CCNC(=O)N1CCCN(C2=NS(=O)(=O)C(c3ccccc3)=C2C)CC1 | 713 s |
| COc1cc(OC)cc(C(=O)Nc2ccc3c(c2)Sc2ncccc2C(=O)N3C(C)C)c1 | 916 s |
| CCOc1ccc(S(=O)(=O)N2CCCC2C(=O)Nc2nccs2)cc1 (stereo unspecified) | 818 s |
| Cc1ccc(S(=O)(=O)N2CCC(CN3CCCCCC3)CC2)cc1F | 686 s |
| CCc1cccc(NC(=O)Cn2c(=O)c(CCC(=O)NCC(C)C)nc3ccccc32)c1 | 880 s |
| COc1ccc(-c2cc3n(n2)CCCN(C(=O)C2CCOC2)C3)cc1 (stereo unspecified) | 703 s |
| O=C(Nc1ccccc1)c1cnc(-c2ccc(F)cc2)nc1-c1ccncc1 | 892 s |
| CCOc1ccc(NC(=O)c2c(Cl)ccc(Cl)c2OC)cc1 | 913 s |
| CCCN1C(=O)COc2ccc(-c3csc(NC(=O)CC)n3)cc21 | 861 s |
| CCOc1cccc(-c2noc(Cn3ncn4nc(-c5ccc(C)cc5C)cc4c3=O)n2)c1 | 1330 s |
